Data on seven compounds can be found in article PMC6616073 (Frontiers in Pharmacology, 2019).

Like-named read-outs stand apart in the source and are kept apart here. Positions of bridges follow the written chain, without caps; N, C: chain ends. Residues, ends and D or L forms follow the SMILES beside them.

For test [1], the target named is T1, AChBP from Aplysia californica (Aplysia californica, UniProt Q8WSF8).
T1 construct: made in house
Kind of test: biochemical. The format is binding.

The next test deals with T2, rat α9α10 nAChR (Rattus norvegicus, UniProt P43144+Q9JLB5).
T2 construct: expressed in transfected cells; host or cells: Xenopus laevis oocytes injected with cRNA (pGEMHE vector)
Kind of test: Two-electrode voltage clamp, rat α9α10 nAChR in Xenopus oocytes. The conditions noted are these: X. laevis oocytes, 30 μM acetylcholine, 5 min pre-incubation with peptide, −60 mV; n = 3; read-out: IC50, inhibition of acetylcholine-induced ion currents in rat α9α10 nAChR. The format is cell-based. As for the experimental part: Oocytes were removed from mature, anesthetized Xenopus laevis by dissecting abdomen and removing necessary amount of ovarium. Stage V–VI Xenopus laevis oocytes were defolliculated with 2 mg/ml collagenase type I (Life Technologies, Camarillo, USA) at room temperature (21–24°C) for 2 h in Ca^2+-free Barth’s solution composed of (in mM) 88 NaCl, 1.1 KCl, 2.4 NaHCO3, 0.8 MgSO4, and 15 HEPES-NaOH at pH 7.6. Oocytes were injected with 9.2 ng of rat or human nAChR α9 and α10 cRNA (in a ratio 1:1) or human α3 and β2 or α4 and β2 cRNA (in a ratio 1:1). Oocytes were incubated at 18°C for 2–4 days before electrophysiological recordings in Barth’s solution composed of (in mM) 88 NaCl, 1.1 KCl, 2.4 NaHCO3, 0.3 Ca(NO3)2, 0.4 CaCl2, 0.8 MgSO4, and 15 HEPES-10NaOH at pH 7.6, supplemented with 40 μg/ml gentamicin and 100 μg/ml ampicillin. Recordings were performed using turbo TEC-03X amplifier (NPI Electronic, Tamm, Germany) and WinWCP recording software (University of Strathclyde, Glasgow, UK). The glass recording electrodes were filled with 3 M KCl and the electrode resistance was 0.1−0.5 MΩ. Membrane potential was clamped at −60 mV. […] The peak current amplitudes of ACh-induced responses were measured before (ACh alone) and after the preincubation of oocytes with peptides. […]
On the technique in general: Two-electrode voltage clamp is typically applied to oocytes expressing channels or transporters.

Test [2] has as its target membrane-bound Torpedo californica nAChR (Tetronarce californica, UniProt P02710+P02712+P02714+P02718). Kind of test: biochemical. The format is binding.
For a further test, the target named is T3, human α9α10 nAChR (Homo sapiens, UniProt Q9GZZ6+Q9UGM1).
T3 construct: expressed in transfected cells; host or cells: Xenopus laevis oocytes injected with cRNA (pT7TS vector)
In words: Two-electrode voltage clamp, human α9α10 nAChR in Xenopus oocytes. The format is cell-based. The conditions noted are these: for inhibition of human α9α10 nAChR (result in words): concentrations as high as 50 µM, Xenopus oocytes, data not shown. As for the experimental part:
(§1) Oocytes were removed from mature, anesthetized Xenopus laevis by dissecting abdomen and removing necessary amount of ovarium. Stage V–VI Xenopus laevis oocytes were defolliculated with 2 mg/ml collagenase type I (Life Technologies, Camarillo, USA) at room temperature (21–24°C) for 2 h in Ca^2+-free Barth’s solution composed of (in mM) 88 NaCl, 1.1 KCl, 2.4 NaHCO3, 0.8 MgSO4, and 15 HEPES-NaOH at pH 7.6. Oocytes were injected with 9.2 ng of rat or human nAChR α9 and α10 cRNA (in a ratio 1:1) or human α3 and β2 or α4 and β2 cRNA (in a ratio 1:1). Oocytes were incubated at 18°C for 2–4 days before electrophysiological recordings in Barth’s solution composed of (in mM) 88 NaCl, 1.1 KCl, 2.4 NaHCO3, 0.3 Ca(NO3)2, 0.4 CaCl2, 0.8 MgSO4, and 15 HEPES-10NaOH at pH 7.6, supplemented with 40 μg/ml gentamicin and 100 μg/ml ampicillin. Recordings were performed using turbo TEC-03X amplifier (NPI Electronic, Tamm, Germany) and WinWCP recording software (University of Strathclyde, Glasgow, UK). The glass recording electrodes were filled with 3 M KCl and the electrode resistance was 0.1−0.5 MΩ. Membrane potential was clamped at −60 mV. Oocytes were briefly washed with Ba^2+ Ringer’s solution ([Fuchs and Murrow, 1992]) composed of (in mM) 115 NaCl, 2.5 KCl, 1.8 BaCl2, 10 HEPES at pH 7.2, followed by three applications of 10 μM acetylcholine (ACh). Washout with Ba^2+ Ringer’s was done for 5 min between ACh applications. Oocytes were preincubated with various concentrations of Ly6 peptides for 5 min followed by their co-application with ACh. To induce ion current, we used ACh in the concentration range from 10 to 30 μM. The peak current amplitudes of ACh-induced responses were measured before (ACh alone) and after the preincubation of oocytes with peptides. The ratio between these two measurements was used to assess the activity of the tested compounds. In the experiments with α3β2 and α4β2, the above technique was also used, except that oocytes were washed in Barth`s solution. All control experiments were performed on the same day.
Rat α9 and α10 cDNAs was cloned in a pGEMHE vector; human α9, α10, α3, and β2 cDNAs were derived from pT7TS vector. Human α4 was cloned in pSP64 vector. Plasmid pT7TS constructs of human nAChR α9 and α10 subunits and human α3 and β2 subunits were linearized with XbaI restriction enzymes (NEB, Ipswich, USA). pSP64 vector was linearized with BamH1 restriction enzymes (NEB, Ipswich, USA). Rat α9 and α10 plasmids were linearized using NheI (NEB, Ipswich, USA). All plasmid constructs were sequencing before mRNA synthesis. […]

For a further test, the target named is human α7 nAChR (Homo sapiens, UniProt P36544). In words: cell-based. The format is binding.
Another test deals with human α3β2 nAChR. In words: Two-electrode voltage clamp, human α3β2 nAChR in Xenopus oocytes. The format is cell-based. Conditions: X. laevis oocytes; for activity on ion currents in α3β2 nAChR (result in words): 30 μM acetylcholine, 30 µM peptide in text, 50 μM in Figure 4, n = 3 or 5. As for the experimental part:
as §1, with “day. […]” for “day.”

Where [3] appears, read: […], 90 min with peptide + 5 min with radioligand, three to four independent experiments, read-out: IC50, μM (95%CI) AChBP.
The mark [4] stands for this setting: […], 90 min with peptide + 5 min with radioligand, 20 mM Tris-HCl pH 8.0, 1 mg/ml BSA, mean (95% CI), three to four independent experiments, read-out: IC50, μM (95%CI) T. californica.

Usually IC50 stands for the concentration that inhibits the measured activity by half.

membrane-bound Torpedo californica nAChR, sequence (P02714 18-506): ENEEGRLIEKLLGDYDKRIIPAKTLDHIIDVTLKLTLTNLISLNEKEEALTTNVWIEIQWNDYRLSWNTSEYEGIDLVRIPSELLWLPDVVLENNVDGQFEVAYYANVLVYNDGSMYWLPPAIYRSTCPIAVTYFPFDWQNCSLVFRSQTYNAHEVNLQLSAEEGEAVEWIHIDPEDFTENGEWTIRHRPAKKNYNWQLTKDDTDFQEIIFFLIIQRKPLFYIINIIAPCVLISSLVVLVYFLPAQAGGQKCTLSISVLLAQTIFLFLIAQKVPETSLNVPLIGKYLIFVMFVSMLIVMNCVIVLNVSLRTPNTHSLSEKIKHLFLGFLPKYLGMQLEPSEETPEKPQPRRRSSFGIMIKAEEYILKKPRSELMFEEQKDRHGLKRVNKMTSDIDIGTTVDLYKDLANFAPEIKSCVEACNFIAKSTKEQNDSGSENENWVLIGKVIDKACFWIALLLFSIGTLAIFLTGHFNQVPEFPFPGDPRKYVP
membrane-bound Torpedo californica nAChR, sequence (P02710 25-461): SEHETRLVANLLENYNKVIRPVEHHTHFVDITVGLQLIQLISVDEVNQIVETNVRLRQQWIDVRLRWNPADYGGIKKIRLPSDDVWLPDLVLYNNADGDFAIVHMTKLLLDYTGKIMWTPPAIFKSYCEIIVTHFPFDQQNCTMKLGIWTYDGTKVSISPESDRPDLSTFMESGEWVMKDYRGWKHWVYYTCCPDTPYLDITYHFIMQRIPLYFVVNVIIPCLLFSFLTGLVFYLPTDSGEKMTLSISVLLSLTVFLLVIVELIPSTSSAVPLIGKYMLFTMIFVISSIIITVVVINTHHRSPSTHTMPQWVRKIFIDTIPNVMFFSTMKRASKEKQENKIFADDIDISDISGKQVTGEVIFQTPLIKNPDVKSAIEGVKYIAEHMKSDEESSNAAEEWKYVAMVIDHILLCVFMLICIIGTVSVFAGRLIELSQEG
membrane-bound Torpedo californica nAChR, sequence (P02718 22-522): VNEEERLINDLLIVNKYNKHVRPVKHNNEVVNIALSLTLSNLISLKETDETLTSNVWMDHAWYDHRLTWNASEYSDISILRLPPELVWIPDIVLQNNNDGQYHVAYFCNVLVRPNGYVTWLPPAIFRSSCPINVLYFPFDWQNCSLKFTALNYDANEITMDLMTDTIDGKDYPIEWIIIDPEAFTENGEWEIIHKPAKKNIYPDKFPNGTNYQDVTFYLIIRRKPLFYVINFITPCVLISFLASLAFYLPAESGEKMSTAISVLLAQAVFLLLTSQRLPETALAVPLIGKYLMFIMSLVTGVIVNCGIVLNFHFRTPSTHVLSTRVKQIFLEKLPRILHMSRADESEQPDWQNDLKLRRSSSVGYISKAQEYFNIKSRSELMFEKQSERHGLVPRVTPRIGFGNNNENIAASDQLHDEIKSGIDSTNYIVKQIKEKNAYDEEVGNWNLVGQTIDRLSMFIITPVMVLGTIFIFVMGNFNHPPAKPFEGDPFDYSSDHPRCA
membrane-bound Torpedo californica nAChR, sequence (P02712 25-493): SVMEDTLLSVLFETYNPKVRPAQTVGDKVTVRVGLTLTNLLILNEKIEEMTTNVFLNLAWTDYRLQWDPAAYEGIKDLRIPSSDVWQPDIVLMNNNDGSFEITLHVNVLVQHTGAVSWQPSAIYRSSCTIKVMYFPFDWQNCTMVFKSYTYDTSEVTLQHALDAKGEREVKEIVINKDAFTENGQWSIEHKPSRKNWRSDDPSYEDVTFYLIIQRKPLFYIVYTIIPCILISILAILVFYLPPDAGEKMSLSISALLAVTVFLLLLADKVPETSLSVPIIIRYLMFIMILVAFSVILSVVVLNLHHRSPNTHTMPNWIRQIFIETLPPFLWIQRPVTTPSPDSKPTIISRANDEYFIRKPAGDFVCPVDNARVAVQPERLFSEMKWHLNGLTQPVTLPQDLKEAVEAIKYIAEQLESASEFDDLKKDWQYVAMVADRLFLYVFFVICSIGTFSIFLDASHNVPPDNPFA
T3 sequence (Q9UGM1 26-479 limits assumed): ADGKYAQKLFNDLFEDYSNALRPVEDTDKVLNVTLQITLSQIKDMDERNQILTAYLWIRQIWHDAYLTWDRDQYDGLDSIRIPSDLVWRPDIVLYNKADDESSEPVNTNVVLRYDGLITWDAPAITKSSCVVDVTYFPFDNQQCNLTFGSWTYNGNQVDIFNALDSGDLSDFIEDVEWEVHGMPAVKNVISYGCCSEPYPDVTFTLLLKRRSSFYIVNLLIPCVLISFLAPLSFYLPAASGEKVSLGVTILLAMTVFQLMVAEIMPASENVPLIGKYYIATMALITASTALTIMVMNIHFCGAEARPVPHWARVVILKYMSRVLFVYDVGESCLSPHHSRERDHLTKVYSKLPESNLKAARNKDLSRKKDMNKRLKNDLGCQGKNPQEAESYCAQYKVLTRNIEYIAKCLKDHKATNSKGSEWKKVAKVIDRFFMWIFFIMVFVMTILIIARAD
T3 sequence (Q9GZZ6 25-450): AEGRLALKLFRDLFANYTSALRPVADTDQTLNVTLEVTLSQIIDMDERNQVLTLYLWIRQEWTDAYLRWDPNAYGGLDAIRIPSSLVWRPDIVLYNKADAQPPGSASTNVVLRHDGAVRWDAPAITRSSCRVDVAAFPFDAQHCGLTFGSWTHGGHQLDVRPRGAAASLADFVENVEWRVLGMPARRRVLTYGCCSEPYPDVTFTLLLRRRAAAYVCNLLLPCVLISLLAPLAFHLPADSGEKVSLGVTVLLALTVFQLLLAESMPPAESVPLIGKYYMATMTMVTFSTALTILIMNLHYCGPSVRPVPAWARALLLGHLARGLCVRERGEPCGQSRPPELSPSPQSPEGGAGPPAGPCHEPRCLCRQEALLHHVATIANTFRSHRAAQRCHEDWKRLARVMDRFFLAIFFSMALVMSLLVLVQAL
T1 sequence (Q8WSF8 entry or part of it): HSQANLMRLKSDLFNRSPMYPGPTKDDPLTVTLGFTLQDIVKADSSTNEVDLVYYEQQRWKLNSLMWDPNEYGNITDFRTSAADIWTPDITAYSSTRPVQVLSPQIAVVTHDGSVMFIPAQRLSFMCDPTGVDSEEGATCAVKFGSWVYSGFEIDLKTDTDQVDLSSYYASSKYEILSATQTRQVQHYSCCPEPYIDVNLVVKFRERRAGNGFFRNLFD
human α7 nAChR, sequence (P36544 23-502): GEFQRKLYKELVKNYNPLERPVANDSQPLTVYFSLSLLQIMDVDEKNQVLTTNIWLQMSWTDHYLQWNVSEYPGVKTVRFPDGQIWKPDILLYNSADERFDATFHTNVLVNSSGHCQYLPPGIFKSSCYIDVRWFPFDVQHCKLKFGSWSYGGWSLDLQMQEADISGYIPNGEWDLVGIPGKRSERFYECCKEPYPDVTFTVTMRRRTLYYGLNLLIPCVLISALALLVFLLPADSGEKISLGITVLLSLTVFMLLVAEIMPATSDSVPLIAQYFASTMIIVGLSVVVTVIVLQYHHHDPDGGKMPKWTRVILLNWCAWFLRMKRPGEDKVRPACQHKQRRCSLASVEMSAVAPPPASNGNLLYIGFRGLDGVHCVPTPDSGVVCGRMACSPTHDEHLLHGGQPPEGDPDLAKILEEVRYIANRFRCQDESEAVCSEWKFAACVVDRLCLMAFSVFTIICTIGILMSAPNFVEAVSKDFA
T2 sequence (Q9JLB5 25-447): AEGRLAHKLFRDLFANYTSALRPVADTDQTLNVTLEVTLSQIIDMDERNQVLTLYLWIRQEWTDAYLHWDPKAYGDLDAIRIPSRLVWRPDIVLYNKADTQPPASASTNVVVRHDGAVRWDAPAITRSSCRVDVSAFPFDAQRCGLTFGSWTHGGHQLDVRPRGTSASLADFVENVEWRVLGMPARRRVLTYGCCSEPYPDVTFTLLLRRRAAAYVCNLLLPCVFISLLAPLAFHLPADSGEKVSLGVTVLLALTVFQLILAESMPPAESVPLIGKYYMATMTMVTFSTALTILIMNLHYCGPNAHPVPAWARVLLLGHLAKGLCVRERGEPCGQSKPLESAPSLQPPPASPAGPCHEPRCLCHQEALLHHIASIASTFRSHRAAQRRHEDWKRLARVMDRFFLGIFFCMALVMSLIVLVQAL
T2 sequence (P43144 26-479): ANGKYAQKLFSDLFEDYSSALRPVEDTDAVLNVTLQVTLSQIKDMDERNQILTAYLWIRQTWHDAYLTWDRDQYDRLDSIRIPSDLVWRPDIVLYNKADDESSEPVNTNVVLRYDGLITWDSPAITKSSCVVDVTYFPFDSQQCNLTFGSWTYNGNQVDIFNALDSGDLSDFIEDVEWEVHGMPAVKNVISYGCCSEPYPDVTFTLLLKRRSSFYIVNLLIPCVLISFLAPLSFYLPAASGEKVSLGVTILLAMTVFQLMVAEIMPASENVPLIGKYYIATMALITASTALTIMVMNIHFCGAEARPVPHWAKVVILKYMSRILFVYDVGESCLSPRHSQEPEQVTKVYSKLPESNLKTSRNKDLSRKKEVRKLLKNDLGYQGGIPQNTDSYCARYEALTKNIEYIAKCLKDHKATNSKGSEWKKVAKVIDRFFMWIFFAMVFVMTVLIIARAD

As for `CSCC[C@@H]1NC(=O)[C@H](CCCNC(=N)N)NC(=O)[C@H]([C@@H](C)O)NC(=O)[C@@H]2CCCN2C(=O)[C@H]([C@@H](C)O)NC(=O)[C@H](Cc2ccc(O)cc2)NC(=O)[C@H](Cc2ccc(O)cc2)NC(=O)[C@H]([C@@H](C)O)NC(=O)[C@H](CCCNC(=N)N)NC(=O)[C@H]([C@@H](C)O)NC(=O)[C@H]([C@@H](C)O)NC(=O)[C@@H](N)CSSC[C@@H](C(=O)O)NC(=O)[C@H](CCCCN)NC(=O)[C@H](CO)NC(=O)[C@H](C(C)C)NC(=O)[C@H](CCCCN)NC1=O` [Lynx1 (1)] (H-CTTRTYYTPTRMKVSKC-OH; disulfide 1-17), the 50% inhibitory concentration (IC50) is more than 100 µM in test [1]; 27 µM on rat α9α10 nAChR; 4.9 µM in test [2] (IC50, μM (95%CI) T. californica).
For the compound `CSCC[C@H](NC(=O)[C@H](CCCNC(=N)N)NC(=O)[C@@H](NC(=O)[C@@H]1CCCN1C(=O)[C@@H](NC(=O)[C@H](Cc1ccc(O)cc1)NC(=O)[C@H](Cc1ccc(O)cc1)NC(=O)[C@@H](NC(=O)[C@H](CCCNC(=N)N)NC(=O)[C@@H](NC(=O)[C@@H](N)[C@@H](C)O)[C@@H](C)O)[C@@H](C)O)[C@@H](C)O)[C@@H](C)O)C(=O)N[C@@H](CCCCN)C(=O)N[C@H](C(=O)N[C@@H](CO)C(=O)N[C@@H](CCCCN)C(=O)O)C(C)C` [Lynx1 linear (2)] (H-TTRTYYTPTRMKVSK-OH), the IC50 in test [1] (setting [3]) was more than 100 µM; against human α9α10 nAChR, 32.3 µM; on human α7 nAChR ([…], 90 min with peptide + 5 min with radioligand, Tris-HCl pH 8.0, mean (95% CI), three to four independent experiments) it was more than 180 µM; in test [2] (setting [4]), 13.2 µM.
With `CSCC[C@@H]1NC(=O)[C@H](CCCNC(=N)N)NC(=O)[C@H]([C@@H](C)O)NC(=O)[C@@H]2CCCN2C(=O)[C@H]([C@@H](C)O)NC(=O)[C@H](Cc2ccc(O)cc2)NC(=O)[C@H](Cc2ccc(O)cc2)NC(=O)[C@H]([C@@H](C)O)NC(=O)[C@H](CCCNC(=N)N)NC(=O)[C@H]([C@@H](C)O)NC(=O)[C@@H](N)CSSC[C@@H](C(=O)O)NC1=O` [Lynx1 short (3)] (H-CTRTYYTPTRMC-OH; disulfide 1-12), the IC50 in test [1] (setting [3]) is more than 100 µM; in test [2] (setting [4]), 74.1 µM.
With `CSCC[C@H](NC(=O)[C@H](CCCNC(=N)N)NC(=O)[C@@H](NC(=O)[C@@H]1CCCN1C(=O)[C@@H](NC(=O)[C@H](Cc1ccc(O)cc1)NC(=O)[C@H](Cc1ccc(O)cc1)NC(=O)[C@@H](NC(=O)[C@H](CCCNC(=N)N)NC(=O)[C@@H](NC(=O)[C@@H](N)CS)[C@@H](C)O)[C@@H](C)O)[C@@H](C)O)[C@@H](C)O)C(=O)N[C@@H](CS)C(=O)O` [Lynx1 short linear (4)] (H-CTRTYYTPTRMC-OH), the values for the 50% inhibitory concentration (IC50) in test [1] (setting [3]) and in test [2] (setting [4]) were more than 100 µM and 15.6 µM, respectively.
In the case of `CC(C)C[C@@H]1NC(=O)[C@H]([C@@H](C)O)NC(=O)[C@@H](N)CSSC[C@@H](C(=O)O)NC(=O)[C@H]([C@@H](C)O)NC(=O)[C@H](C(C)C)NC(=O)[C@H](C(C)C)NC(=O)[C@@H]2CCCN2C(=O)[C@H](CO)NC(=O)[C@H](CCC(N)=O)NC(=O)[C@H](CC(N)=O)NC(=O)[C@H](Cc2ccccc2)NC(=O)[C@@H]2CCCN2C(=O)[C@H](Cc2ccc(O)cc2)NC(=O)[C@H](CCC(=O)O)NC(=O)[C@H](C)NC(=O)[C@H](CCC(=O)O)NC(=O)[C@H](C(C)C)NC(=O)[C@H]([C@@H](C)O)NC(=O)[C@H](C(C)C)NC1=O` [SLURP1 (6)] (H-CTLVTVEAEYPFNQSPVVTC-OH; disulfide 1-20; N-terminus assumed), in the test on human α3β2 nAChR (50 μM peptide, 30 μM ACh, mean ± SEM, n = 5), the “normalized ion current in human α3β2 nAChR (current with ACh alone = 1)” value is reported as 0.74 ± 0.08. Also, at human α9α10 nAChR, the “inhibition of human α9α10 nAChR (result in words)” value was “no inhibition”.
Consider `CC(C)C[C@@H]1NC(=O)[C@H](C(C)C)NC(=O)[C@H](CCCNC(=N)N)NC(=O)[C@H]([C@@H](C)O)NC(=O)[C@H](C)NC(=O)[C@H]([C@@H](C)O)NC(=O)[C@@H](N)CSSC[C@@H](C(=O)O)NC(=O)[C@H]([C@@H](C)O)NC(=O)[C@H](C(C)C)NC(=O)[C@H](CC(C)C)NC(=O)[C@@H]2CCCN2C(=O)[C@H](CC(C)C)NC(=O)[C@H](CC(=O)O)NC(=O)[C@H](CCC(=O)O)NC(=O)[C@H]([C@@H](C)O)NC(=O)[C@H](CC(N)=O)NC(=O)[C@H](CO)NC1=O` [SLURP2 (7)] (H-CTATRVLSNTEDLPLVTC-OH; disulfide 1-18; N-terminus assumed), for which the “activity on ion currents in α3β2 nAChR (result in words)” value in the test with human α3β2 nAChR was “inactive”. Also, the “inhibition of human α9α10 nAChR (result in words)” value against human α9α10 nAChR is “no inhibition”.
As to `CSCC[C@@H]1NC(=O)[C@H](CCCNC(=N)N)NC(=O)[C@H](CCCNC(=N)N)NC(=O)[C@H](C(C)C)NC(=O)[C@H](C(C)C)NC(=O)[C@H](CCC(=O)O)NC(=O)[C@H](Cc2ccc(O)cc2)NC(=O)[C@@H]2CCCN2C(=O)[C@H](CO)NC(=O)[C@H](CCCNC(=N)N)NC(=O)[C@H](CCC(N)=O)NC(=O)[C@H](Cc2c[nH]cn2)NC(=O)[C@H](CCCNC(=N)N)NC(=O)[C@H](C(C)C)NC(=O)[C@H](CCSC)NC(=O)[C@H](CCCCN)NC(=O)[C@@H](N)CSSC[C@@H](C(=O)O)NC1=O` [SSS (5)] (H-CKMVRHQRSPYEVVRRMC-OH; disulfide 1-18; N-terminus assumed), the “activity on ion currents in α3β2 nAChR (result in words)” value with human α3β2 nAChR was “inactive”. For the same compound, the “inhibition of ion currents in human α9α10 nAChR” value against human α9α10 nAChR (100 μM peptide, 25 μM acetylcholine, X. laevis oocytes, n = 3) is given as 50%. Also, at human α7 nAChR (ratio of IC50 values of the radioligand assay), the “fold more active against α7 nAChR than the Lynx1 fragment (1)” value worked out at 10 fold.
